Reference: patent US12685739B2, “Compositions and methods for treating lung injury” (University of Maryland, Baltimore, priority 2020, dated 2026)

Columns and labels:
[1] = system: rat model of ARDS plus MV; assay: rat model of ARDS (intratracheal HCl) plus mechanical ventilation; format: in vivo
Procedure: In other cases, a rat model of ARDS was used in which acute lung injury is induced by acid instillation, followed by mechanical ventilation. […] In a second experiment, a conventional rat model of ARDS plus MV was used. Rats were anesthetized and intubated. […] After inducing ALI, rats received MV for 4 hours, as above, except that VT=8 mL/kg. Rats were euthanized at 24 hours. […] MV (VT=8 mL/kg) was continued for 4 hours, following which rats were extubated, recovered from anesthesia and returned to their home cages. Lung function was evaluated at 24 hours. Rats were re-anesthetized. […] Rats were then re-intubated for MV. […] In a subgroup of rats, after completing the 24-hour lung function assessments, rats were euthanized, and the lungs were […] using 5 mL normal saline to obtain bronchioalveolar lavage fluid (BALF). BALF was analyzed for protein.

human neutrophils = assay: MRP8/14 exocytosis from activated human neutrophils, ELISA; format: cell-based; design: dose or concentration left out as unconfirmed; details: co-incubation with glibenclamide, n=6
Procedure: FIG. 9. […] Exocytosis of MRP8/14 from human neutrophils using ELISA was studied. […] Co-immunoprecipitation experiments were performed to determine whether SUR1 and MRP8/14 physically co-associate.

[2] = system: LPS-induced mouse model of ARDS; assay: LPS-induced mouse model of ARDS; format: in vivo; details: 10 μg IP 2 hours after LPS and again 5 hours later, 24 hours after LPS, vs vehicle
Procedure: At 24 hours after LPS induction, bronchioalveolar fluid (BALF) was analyzed for neutrophil infiltration, and lung tissues were analyzed for cytokine expression. […].
At 24 hours after LPS induction, bronchioalveolar fluid (BALF) was analyzed for neutrophil infiltration, and lung tissues were analyzed for S100A8/MRP8, which is released by neutrophils. As previously, LPS instilled into the lungs caused a massive invasion of neutrophils into the BALF, as well as dramatic accumulation of the S100A8/MRP8. […]

SUR1-regulated channels = details: in vitro, low-dose; read-out: EC50, inhibition of SUR1-regulated channels; cited from earlier work
[3] = system: murine model of ALI induced by intranasal ovalbumin (OVA); details: 20 mg/kg, mice pre-sensitized to OVA; cited from earlier work
[4] = system: rat model of ALI induced by IV administration of oleic acid (OA); details: 75 mg/kg IP 1 hour before OA; cited from earlier work
[5] = system: mouse model of ventilator-induced lung injury (VILI); details: 50 mg/kg, VT=15 mL/kg; cited from earlier work
[6] = system: rat model of VILI with MV alone; assay: rat model of VILI with mechanical ventilation alone; details: 10 μg/kg IP at start of MV, MV 4 hours (10 mL/kg), assessed at 24 hours, vs vehicle
[7] = 50 μg/kg IP at onset of MV and at 6 hours, 24 hours, vs VEH

With COc1ccc(Cl)cc1C(=O)NCCc1ccc(S(=O)(=O)NC(=O)NC2CCCCC2)cc1 [glibenclamide] the “dynamic lung compliance, pressure-volume curve” value [1, 7] was “the shift to the right was less pronounced”, the “hemoglobin (Hgb) in lung tissues, immunoblot” value [1, 7] was “less hemorrhagic exudate” and the “hemorrhagic exudates, gross appearance of lungs” value [1, 7] was “reduced hemorrhagic exudates”. The “protein in BALF” value [1, 7] was “the increase was less pronounced”, the “oxygen saturation (sO2), pulse oximetry” value ([1]; 50 μg/kg IP at onset of MV and at 6 hours, at 24 hours, n=3) was 88±4.4% and the “cellular infiltrates, H&E-stained lung sections” value ([1]; ARDS with MV, vs VEH) was “reduced cellular infiltrates”. For the same molecule, the “neutrophil invasion, immunohistochemistry for MPO” value ([1]; lung tissues, vs VEH) was “less pronounced”, the “quantification of MPO by immunohistochemistry and immunoblot” value ([1]; lung tissues, vs VEH) was “significant reduction” and the “NOS2 expression in lung tissues” value ([1]; vs VEH) was “attenuated”. The “TNF expression in lung tissues” value ([1]; vs VEH) was “attenuated”, the “MRP8/14 exocytosis (release into extracellular media)” value (human neutrophils; neutrophils stimulated with LPS) was “significantly reduced” and the “MRP8/14 exocytosis (release into extracellular media)” value (human neutrophils; neutrophils stimulated with PMA) was “significantly reduced”. The “IL-6 in lung tissues” value [2] was “significant reduction”, the “MCP-1 in lung tissues” value [2] was “significant reduction” and the “S100A8/MRP8 in lung tissues” value [2] was “significant reduction”. For the same molecule, the “neutrophils in BALF” value [2] was “significant reduction”, the “IL-6 in lung tissues” value ([2]; listed as Glibenclamide) was “significant reductions” and the “MCP-1 in lung tissues” value ([2]; listed as Glibenclamide) was “significant reductions”. For the same molecule, the EC50 (SUR1-regulated channels) was 48 nM, the “Th2 cytokines IL-5, IL-4 and IL-13 in BALF” value [3] was “significantly reduced” and the “levels of myeloperoxidase (MPO) and malondialdehyde (MDA)” value [4] was “reduced levels”. For the same molecule, the “pulmonary interstitial edema, infiltration of neutrophils and mononuclear cells” value [4] was “significantly alleviated”, the “BALF total protein, neutrophils, IL-1β, IL-6 and KC levels” value [5] was “reduced” and the pulmonary edema [5] was “reduced pulmonary edema”. For the same molecule, the “pulmonary edema (wet weight/dry weight)” value [6] was “significantly reduced”, the “pulmonary edema (wet weight/dry weight)” value ([6]; listed as GLIB) was “significantly decreased pulmonary edema” and the “pulmonary edema (wet weight/dry weight)” value ([6]; listed as Glibenclamide) was “significantly decreased pulmonary edema”.
